Experimental data published in the supplement of paper PMC10627819.

Experiments:
B. subtilis 168 [1] = assay: fitness (endpoint OD595 vs no drug) (fraction); higher = more growth
Outline: (§1)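 Growth medium was TSB, LB Lennox or CY, and plates were kept at 37 °C. Inoculation was at OD595 0.01 in 384-well plates, at 30 µl per well or 55 µl for S. pneumoniae. OD595 was monitored every 30 min for 14 h and background-subtracted using the first reading. Fitness is the optical density on entering stationary phase divided by the robust mean of no-drug controls, with values capped at 1.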

S. aureus DSM 20231 [2] = assay: as above
Outline: as §1

S. aureus Newman [3] = assay: as above
Outline: as §1

S. pneumoniae D39V [4] = assay: as above
Outline: as §1

B. subtilis 168 [5] = assay: Bliss interaction score (quartile over a dose matrix) (fitness difference); higher = more antagonism (negative = synergy)
Outline: (§2)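 Combination data were used to infer fitness under each single drug. Fitness is the OD595 at entry into stationary phase divided by the robust mean of the plate's no-drug wells, with a cap of 1. The Bliss score is the observed minus the expected product fitness, summarised by quartiles over technical, biological and donor/recipient replicates.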

S. aureus DSM 20231 [6] = assay: as above
Outline: as §2

S. aureus Newman [7] = assay: as above
Outline: as §2

S. pneumoniae D39V [8] = assay: as above
Outline: as §2
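Wherever Bliss interaction score (quartile over a dose matrix) is given: first quartile when negative (synergy) and third quartile when positive (antagonism).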

CCCCCCCCCC(=O)N[C@@H](Cc1c[nH]c2ccccc12)C(=O)N[C@H](CC(N)=O)C(=O)N[C@@H](CC(=O)O)C(=O)N[C@@H]1C(=O)NCC(=O)N[C@@H](CCCN)C(=O)N[C@@H](CC(=O)O)C(=O)N[C@H](C)C(=O)N[C@@H](CC(=O)O)C(=O)NCC(=O)N[C@H](CO)C(=O)N[C@@H]([C@H](C)CC(=O)O)C(=O)N[C@@H](CC(=O)c2ccccc2N)C(=O)O[C@@H]1C [Daptomycin] + CN1C2=CC=CC=C2N=C3C1=CC=CC3=O [Pyocyanin]
fitness
Settings | first compound 0.125 µg/mL | first compound 0.25 µg/mL | first compound 0.5 µg/mL | first compound 1 µg/mL | first compound 2 µg/mL | first compound 4 µg/mL
B. subtilis 168 [1], partner 1.25 µg/mL | 0.868 | 0.89 | 0.846 | – | – | –
B. subtilis 168 [1], partner 2.5 µg/mL | 0.846 | 0.817 | 0.803 | – | – | –
B. subtilis 168 [1], partner 5 µg/mL | 0.718 | 0.755 | 0.679 | – | – | –
S. aureus DSM 20231 [2], partner 1.25 µg/mL | – | – | 0.891 | 0.969 | 0.727 | –
S. aureus DSM 20231 [2], partner 2.5 µg/mL | – | – | 0.936 | 0.974 | 0.737 | –
S. aureus DSM 20231 [2], partner 5 µg/mL | – | – | 0.627 | 0.707 | 0.639 | –
S. aureus Newman [3], partner 1.25 µg/mL | 0.871 | 0.874 | 0.904 | – | – | –
S. aureus Newman [3], partner 2.5 µg/mL | 0.839 | 0.857 | 0.855 | – | – | –
S. pneumoniae D39V [4], partner 0.325 µg/mL | – | – | – | ≥ 1 | ≥ 1 | 0.994
S. pneumoniae D39V [4], partner 0.65 µg/mL | – | – | – | 0.905 | 0.944 | 0.931
S. pneumoniae D39V [4], partner 1.3 µg/mL | – | – | – | 0.615 | 0.604 | 0.582

fitness, one replicate
Settings | partner 1.25 µg/mL | partner 2.5 µg/mL | partner 5 µg/mL
B. subtilis 168 [1], first compound 1 µg/mL | 0.697 | 0.652 | 0.552
S. aureus DSM 20231 [2], first compound 0.125 µg/mL | 0.798 | 0.814 | 0.577
S. aureus DSM 20231 [2], first compound 0.25 µg/mL | 0.86 | 0.938 | 0.581

Settings | Bliss interaction score
B. subtilis 168 [5] | -0.0565
S. aureus DSM 20231 [6] | -0.0886
S. aureus Newman [7] | 0.0899
S. pneumoniae D39V [8] | -0.0802

CCCCCCCCCC(=O)N[C@@H](Cc1c[nH]c2ccccc12)C(=O)N[C@H](CC(N)=O)C(=O)N[C@@H](CC(=O)O)C(=O)N[C@@H]1C(=O)NCC(=O)N[C@@H](CCCN)C(=O)N[C@@H](CC(=O)O)C(=O)N[C@H](C)C(=O)N[C@@H](CC(=O)O)C(=O)NCC(=O)N[C@H](CO)C(=O)N[C@@H]([C@H](C)CC(=O)O)C(=O)N[C@@H](CC(=O)c2ccccc2N)C(=O)O[C@@H]1C [Daptomycin] + CN(N=O)C(=O)N[C@@H](C=O)[C@@H](O)[C@H](O)[C@H](O)CO [Streptozotocin]
fitness, one replicate
Settings | partner 0.15 µg/mL | partner 0.3 µg/mL | partner 0.6 µg/mL
B. subtilis 168 [1], first compound 0.125 µg/mL | 0.889 | 0.968 | 0.935
B. subtilis 168 [1], first compound 1 µg/mL | 0.658 | 0.674 | 0.669
S. aureus DSM 20231 [2], first compound 0.125 µg/mL | 0.795 | 0.761 | 0.645
S. aureus DSM 20231 [2], first compound 0.25 µg/mL | 0.883 | 0.764 | 0.656

fitness
Settings | partner 0.15 µg/mL | partner 0.3 µg/mL | partner 0.6 µg/mL | partner 1.2 µg/mL | partner 2.4 µg/mL | partner 4.8 µg/mL
B. subtilis 168 [1], first compound 0.25 µg/mL | 0.89 | 0.914 | 0.969 | – | – | –
B. subtilis 168 [1], first compound 0.5 µg/mL | 0.835 | 0.761 | 0.768 | – | – | –
S. aureus DSM 20231 [2], first compound 0.5 µg/mL | 0.817 | 0.778 | 0.732 | – | – | –
S. aureus DSM 20231 [2], first compound 1 µg/mL | 0.93 | 0.799 | 0.744 | – | – | –
S. aureus DSM 20231 [2], first compound 2 µg/mL | 0.871 | 0.818 | 0.748 | – | – | –
S. aureus Newman [3], first compound 0.125 µg/mL | 0.945 | 0.805 | 0.636 | – | – | –
S. aureus Newman [3], first compound 0.25 µg/mL | 0.957 | 0.855 | 0.594 | – | – | –
S. aureus Newman [3], first compound 0.5 µg/mL | 0.969 | 0.807 | 0.627 | – | – | –
S. pneumoniae D39V [4], first compound 1 µg/mL | – | – | – | 0.94 | 0.939 | 0.918
S. pneumoniae D39V [4], first compound 2 µg/mL | – | – | – | 0.935 | 0.95 | 0.884
S. pneumoniae D39V [4], first compound 4 µg/mL | – | – | – | 0.968 | 0.942 | 0.923

Settings | Bliss interaction score
B. subtilis 168 [5] | -0.0562
S. aureus DSM 20231 [6] | 0.0436
S. aureus Newman [7] | 0.0468
S. pneumoniae D39V [8] | 0.0898

CCCCCCCCCC(=O)N[C@@H](Cc1c[nH]c2ccccc12)C(=O)N[C@H](CC(N)=O)C(=O)N[C@@H](CC(=O)O)C(=O)N[C@@H]1C(=O)NCC(=O)N[C@@H](CCCN)C(=O)N[C@@H](CC(=O)O)C(=O)N[C@H](C)C(=O)N[C@@H](CC(=O)O)C(=O)NCC(=O)N[C@H](CO)C(=O)N[C@@H]([C@H](C)CC(=O)O)C(=O)N[C@@H](CC(=O)c2ccccc2N)C(=O)O[C@@H]1C [Daptomycin] + CN[C@@H]1[C@H](O)[C@H](NC)[C@H]2O[C@@]3(O)C(=O)C[C@@H](C)O[C@H]3O[C@@H]2[C@H]1O [Spectinomycin]
fitness
Settings | first compound 0.125 µg/mL | first compound 0.25 µg/mL | first compound 0.5 µg/mL | first compound 1 µg/mL | first compound 2 µg/mL | first compound 4 µg/mL
B. subtilis 168 [1], partner 2 µg/mL | 0.934 | 0.979 | 0.836 | – | – | –
B. subtilis 168 [1], partner 4 µg/mL | 0.964 | 0.946 | 0.813 | – | – | –
B. subtilis 168 [1], partner 8 µg/mL | 0.863 | 0.944 | 0.835 | – | – | –
S. aureus DSM 20231 [2], partner 4 µg/mL | – | – | ≥ 1 | 0.978 | 0.964 | –
S. aureus DSM 20231 [2], partner 8 µg/mL | – | – | ≥ 1 | 0.96 | 0.946 | –
S. aureus DSM 20231 [2], partner 16 µg/mL | 0.852 | 0.872 | 0.905 | 0.931 | 0.866 | –
S. aureus Newman [3], partner 4 µg/mL | 0.963 | 0.932 | 0.924 | – | – | –
S. aureus Newman [3], partner 8 µg/mL | 0.991 | 0.983 | 0.952 | – | – | –
S. aureus Newman [3], partner 16 µg/mL | 0.915 | 0.917 | 0.905 | – | – | –
S. pneumoniae D39V [4], partner 4 µg/mL | – | – | – | 0.92 | 0.943 | 0.941
S. pneumoniae D39V [4], partner 8 µg/mL | – | – | – | 0.817 | 0.856 | 0.847
S. pneumoniae D39V [4], partner 16 µg/mL | – | – | – | 0.554 | 0.569 | 0.546

fitness, one replicate
Settings | partner 2 µg/mL | partner 4 µg/mL | partner 8 µg/mL | partner 32 µg/mL | partner 64 µg/mL
B. subtilis 168 [1], first compound 1 µg/mL | 0.704 | 0.71 | 0.751 | – | –
S. aureus DSM 20231 [2], first compound 0.125 µg/mL | – | 0.935 | 0.988 | 0.767 | 0.0669
S. aureus DSM 20231 [2], first compound 0.25 µg/mL | – | 0.977 | 0.998 | 0.7 | 0.0927
S. aureus DSM 20231 [2], first compound 0.5 µg/mL | – | – | – | 0.745 | 0.079
S. aureus Newman [3], first compound 0.125 µg/mL | – | – | – | 0.595 | 0.0775
S. aureus Newman [3], first compound 0.25 µg/mL | – | – | – | 0.63 | 0.0532
S. aureus Newman [3], first compound 0.5 µg/mL | – | – | – | 0.626 | 0.0675

Settings | Bliss interaction score
B. subtilis 168 [5] | 0.0649
S. aureus DSM 20231 [6] | 0.0629
S. aureus Newman [7] | 0.0696
S. pneumoniae D39V [8] | 0.0673
